The results in this text go back to publication PMC8506265 (Bioorganic & medicinal chemistry, 2021).

Assay [1] concerns the target T1, human CB1 (Homo sapiens, UniProt P21554). The assay can be described thus: BRET CAMYEL cAMP assay in HEK293 3HA-hCB1 cells. It is filed as cell-based. A general note: BRET reads energy transfer from a luciferase to a nearby fluorophore.
For assay [2], the target named is T1, human CB1. It is filed as biochemical. Particulars: operational model of allosterism; probe CP55,940.
For assay [3], the target named is T1, human CB1. The assay can be described thus: hCB1 calcium mobilization assay. (Calcium assays in cells follow changes in intracellular calcium, usually with a dye or a luminescent sensor.)
For assay [4], the target named is T1, human CB1. The assay can be described thus: [35S]GTPγS binding assay, hCB1 HEK293 membranes. It is filed as biochemical. For orientation: GTPγS is a poorly hydrolysed GTP analogue; its binding reports G protein activation.

As usually defined, the IC50 is the midpoint of a concentration-inhibition curve.

Bounds are passed on as bounds.

T1 sequence (P21554 whole entry): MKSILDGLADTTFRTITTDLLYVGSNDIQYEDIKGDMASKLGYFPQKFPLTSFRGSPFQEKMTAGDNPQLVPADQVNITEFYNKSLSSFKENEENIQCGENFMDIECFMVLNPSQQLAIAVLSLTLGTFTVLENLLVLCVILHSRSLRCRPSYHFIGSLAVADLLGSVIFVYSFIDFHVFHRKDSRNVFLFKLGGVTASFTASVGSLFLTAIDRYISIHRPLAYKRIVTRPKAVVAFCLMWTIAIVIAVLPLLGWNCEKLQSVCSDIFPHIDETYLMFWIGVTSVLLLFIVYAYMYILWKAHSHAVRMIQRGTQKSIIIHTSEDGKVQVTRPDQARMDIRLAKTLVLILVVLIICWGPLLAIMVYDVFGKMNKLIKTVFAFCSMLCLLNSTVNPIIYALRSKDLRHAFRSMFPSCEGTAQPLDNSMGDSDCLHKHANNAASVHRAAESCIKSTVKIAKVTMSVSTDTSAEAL

Consider `O=C(NCCc1ccccc1)Nc1ccc(Cl)cc1` [Compound 8, 3‐(4‐Chlorophenyl)‐1‐(2‐phenylethyl)urea], for which the “potency in the cAMP assay” value on human CB1 [1] is reported as “low micromolar range”.
For the compound `O=C(NCCc1ccc(N2CCCCC2)cc1)Nc1ccc(Cl)cc1` [Compound 9, 1-(4-Chlorophenyl)-3-{2-[4-(piperidin-1-yl)phenyl]ethyl}-urea], at human CB1 [2], the “alpha (binding cooperativity)” value worked out at 5.1, the “beta (modification of probe efficacy)” value is on record as 0.09, the “logalpha (binding cooperativity)” value worked out at 0.7 ± 0.1 and the “logbeta (modification of probe efficacy)” value is listed as −1.1 ± 0.1.
Take `CN(C)c1ccc(CCNC(=O)Nc2ccc(Cl)cc2)cc1` [Compound 12, 3‐(4‐Chlorophenyl)‐1‐{2‐[4‐(dimethylamino)phenyl]ethyl}-urea]: at human CB1 [1], the “potency in the cAMP assay” value was “low micromolar range”.
For the compound `O=C(NCc1ccccc1)Nc1ccc(Cl)cc1` [Compound 13, 3‐(4‐Chlorophenyl)‐1‐(3‐phenylmethyl)urea], the 50% inhibitory concentration (IC50) at human CB1 [3] is over 10 µM.
Still for that read-out and setting: for `CC(C)(CNC(=O)Nc1ccc(Cl)cc1)c1ccccc1` [Compound 15, 1-(4-Chlorophenyl)-3-(2-methyl-2-phenylpropyl)urea] the value was over 10 µM; for `CC(C)(Cc1ccccc1)NC(=O)Nc1ccc(Cl)cc1` [Compound 16, 1-(4-Chlorophenyl)-3-(2-methyl-1-phenylpropan-2-yl)urea], over 10 µM; for `O=C(Nc1ccc(Cl)cc1)NC1(Cc2ccccc2)CC1` [Compound 19, 1-(1-Benzylcyclopropyl)-3-(4-chlorophenyl)urea], over 10 µM.
For `O=C(NCCc1ccsc1)Nc1ccc(Cl)cc1` [Compound 24, 1-(4-Chlorophenyl)-3-[2-(thiophen-3-yl)ethyl]urea], the half-maximal inhibitory concentration (IC50) was 7.94 µM at human CB1 [4] and 1.58 µM on human CB1 [3].
In the case of `O=C(NCCc1cccs1)Nc1ccc(Cl)cc1` [Compound 25, 1-(4-Chlorophenyl)-3-[2-(thiophen-2-yl)ethyl]urea], the half-maximal inhibitory concentration (IC50) on human CB1 [4] is 7.94 µM; at human CB1 [3] it was 0.794 µM.
With `Cc1ccc(CCNC(=O)Nc2ccc(Cl)cc2)o1` [Compound 26, 1‐(4‐Chlorophenyl)‐3‐[2‐(5‐methylfuran‐2‐yl)ethyl]urea], the IC50 at human CB1 [4] is 12.6 µM; against human CB1 [1], 3.98 µM; at human CB1 [3] it was 0.251 µM. The “potency in the cAMP assay” value at human CB1 [1] is “low micromolar range”.
